Experimental findings from article PMC8939339, “Mechanism of Cooperative Degradation of Gum Arabic Arabinogalactan Protein by Bifidobacterium longum Surface Enzymes” (Applied and Environmental Microbiology, 2022) are described below.

This assay deals with T1, BlArafE (Bifidobacterium longum, UniProt A0ACD7UMY4).
T1 construct: gene BLLJ_1850; signal peptide (aa 1-26) and C-terminal TM region (aa 1637-1659) removed; printed insert 88 to 4899 (nucleotides); His-tag (printed both as C- and N-terminal; pET23b); E. coli BL21(DE3); 175 kDa
As to the kind of experiment: HPAEC-PAD of reaction products. In kind it is biochemical. The conditions noted are these: 50 mM sodium acetate pH 6.0, 37 °C, 16 h; both alpha1,3- and alpha1,4-Araf cleaved.

T1 sequence (A0ACD7UMY4 30-1633): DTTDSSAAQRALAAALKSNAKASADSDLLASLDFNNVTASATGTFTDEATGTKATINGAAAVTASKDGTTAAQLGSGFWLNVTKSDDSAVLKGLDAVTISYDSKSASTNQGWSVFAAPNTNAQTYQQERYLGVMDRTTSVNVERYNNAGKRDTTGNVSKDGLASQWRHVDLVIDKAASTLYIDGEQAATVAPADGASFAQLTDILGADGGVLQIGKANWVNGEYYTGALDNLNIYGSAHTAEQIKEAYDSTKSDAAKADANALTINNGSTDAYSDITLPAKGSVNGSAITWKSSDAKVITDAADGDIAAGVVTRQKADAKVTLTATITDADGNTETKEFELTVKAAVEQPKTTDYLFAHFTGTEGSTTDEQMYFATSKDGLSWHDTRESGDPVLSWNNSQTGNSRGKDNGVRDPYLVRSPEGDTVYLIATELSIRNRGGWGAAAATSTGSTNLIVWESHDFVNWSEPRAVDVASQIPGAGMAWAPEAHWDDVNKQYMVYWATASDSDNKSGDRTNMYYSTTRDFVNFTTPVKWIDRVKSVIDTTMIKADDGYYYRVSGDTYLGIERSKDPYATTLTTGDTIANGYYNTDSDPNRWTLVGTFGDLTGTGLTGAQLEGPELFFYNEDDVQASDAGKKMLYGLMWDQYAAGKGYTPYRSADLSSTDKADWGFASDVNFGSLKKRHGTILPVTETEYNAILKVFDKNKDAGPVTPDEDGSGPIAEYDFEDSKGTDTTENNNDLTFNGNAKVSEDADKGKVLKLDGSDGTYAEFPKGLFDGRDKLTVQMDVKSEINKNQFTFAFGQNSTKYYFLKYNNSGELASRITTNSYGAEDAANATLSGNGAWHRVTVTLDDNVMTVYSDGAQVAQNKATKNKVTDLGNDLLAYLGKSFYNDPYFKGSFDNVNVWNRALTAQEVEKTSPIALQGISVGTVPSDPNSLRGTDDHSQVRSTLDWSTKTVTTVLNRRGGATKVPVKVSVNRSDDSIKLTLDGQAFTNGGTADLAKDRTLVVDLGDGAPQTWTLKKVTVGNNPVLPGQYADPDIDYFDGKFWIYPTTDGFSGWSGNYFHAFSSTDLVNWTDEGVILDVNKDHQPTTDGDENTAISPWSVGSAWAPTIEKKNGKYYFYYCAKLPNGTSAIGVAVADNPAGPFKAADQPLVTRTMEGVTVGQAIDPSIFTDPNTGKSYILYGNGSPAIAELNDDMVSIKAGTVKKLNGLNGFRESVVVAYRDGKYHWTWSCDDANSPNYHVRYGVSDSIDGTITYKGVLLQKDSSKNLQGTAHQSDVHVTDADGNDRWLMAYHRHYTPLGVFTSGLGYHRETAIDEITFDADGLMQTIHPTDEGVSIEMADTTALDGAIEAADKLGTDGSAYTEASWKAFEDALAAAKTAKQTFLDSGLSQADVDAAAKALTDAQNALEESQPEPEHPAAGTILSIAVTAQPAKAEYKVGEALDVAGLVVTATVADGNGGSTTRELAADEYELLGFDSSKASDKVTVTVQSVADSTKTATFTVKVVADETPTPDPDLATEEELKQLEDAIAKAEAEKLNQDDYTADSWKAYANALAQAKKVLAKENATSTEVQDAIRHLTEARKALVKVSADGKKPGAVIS

On to `C[C@@H]1O[C@@H](O[C@H]2[C@H](O)[C@@H](O)[C@H](OC[C@H]3O[C@@H](OC[C@H]4OC(O)[C@H](O)[C@@H](O)[C@H]4O)[C@H](O)[C@@H](OC4O[C@@H](CO)C(O)[C@H]4O)[C@H]3OC3O[C@@H](CO)C(O)[C@H]3O)O[C@@H]2C(=O)O)[C@H](O)[C@H](O)[C@H]1O` (stereo partly shown) [S5-A], for which the “HPAEC-PAD of reaction products” value was “BlArafE cleaved S5-A into S4 and L-arabinose”.
